# Source: patent publication US20220289794A1, “SYNTHETIC ANTIMICROBIAL PEPTIDES” (priority 2019, published 2022)
# Read-outs that look alike come from different tables or passages of the source. Non-standard residues stand in square brackets, D forms with d. Residues, ends and D or L forms follow the SMILES beside them. dDip = N[C@@H](C(=O)O)C(c1ccccc1)c1ccccc1; Dip = N[C@H](C(=O)O)C(c1ccccc1)c1ccccc1; 2Nal = N[C@@H](Cc1ccc2ccccc2c1)C(=O)O; d2Nal = N[C@H](Cc1ccc2ccccc2c1)C(=O)O
# Legend:
# [1] = tested on: Escherichia coli (ATCC 25922); details: ATCC 25922
# in vitro = details: human, fresh human red blood cells (washed), pH 7.4
# S. aureus ATCC 29213 = details: ATCC 29213
# [2] = tested on: Methicillin-resistant Staphylococcus aureus MRSA (ATCC BAA-1556); details: ATCC BAA-1556
# [3] = tested on: Pseudomonas aeruginosa (ATCC 27883)
Structure (SMILES),MIC E. coli ATCC 25922 [1] [µg/mL],HC50 at 0.5 h (in vitro) [µg/mL],MIC S. aureus ATCC 29213 (S. aureus ATCC 29213) [µg/mL],MIC MRSA ATCC BAA-1556 [2] [µg/mL],MIC P. aeruginosa ATCC 27883 ([3]; ATCC 27883) [µg/mL],MIC P. aeruginosa ATCC 27883 ([3]; P. aeruginosa ATCC 27883) [µg/mL]
N=C(N)NCCC[C@@H](N)C(=O)N[C@H](CCCNC(=N)N)C(=O)N[C@H](CCCNC(=N)N)C(=O)N[C@H](CCCNC(=N)N)C(=O)N[C@@H](C(=O)N[C@@H](C(=O)N[C@@H](C(=O)O)C(c1ccccc1)c1ccccc1)C(c1ccccc1)c1ccccc1)C(c1ccccc1)c1ccccc1 [IFX-067-1] (H-[dR][dR][dR][dR][dDip][dDip][dDip]-OH),6.2,390,3.1,3.1,12.5,–
N=C(N)NCCC[C@@H](N)C(=O)N[C@@H](CCCNC(=N)N)C(=O)N[C@H](CCCNC(=N)N)C(=O)N[C@@H](CCCNC(=N)N)C(=O)N[C@@H](C(=O)N[C@@H](C(=O)N[C@@H](C(=O)O)C(c1ccccc1)c1ccccc1)C(c1ccccc1)c1ccccc1)C(c1ccccc1)c1ccccc1 [IFX-068-1] (H-[dR]R[dR]R[dDip][dDip][dDip]-OH),12.5,355,3.1,6.2,25,–
"N=C(N)NCCC[C@@H]1NC(=O)[C@@H](CCCNC(=N)N)NC(=O)[C@H](CCCNC(=N)N)NC(=O)[C@@H](C(c2ccccc2)c2ccccc2)NC(=O)[C@@H](C(c2ccccc2)c2ccccc2)NC(=O)[C@@H](C(c2ccccc2)c2ccccc2)NC(=O)[C@@H](CCCNC(=N)N)NC1=O [IFX-070, c[Arg-arg-Arg-arg-dip-dip-dip]] (cyclo(R[dR]R[dR][dDip][dDip][dDip]))",–,340,3.1,1.5,12.5,–
N=C(N)NCCC[C@H](NC(=O)[C@@H](CCCNC(=N)N)NC(=O)[C@@H](N)CCCNC(=N)N)C(=O)N[C@H](CCCNC(=N)N)C(=O)N[C@@H](C(=O)N[C@@H](C(=O)N[C@@H](C(=O)O)C(c1ccccc1)c1ccccc1)C(c1ccccc1)c1ccccc1)C(c1ccccc1)c1ccccc1 [IFX-070-1] (H-R[dR]R[dR][dDip][dDip][dDip]-OH),6.2,380,3.1,3.1,12.5,–
N=C(N)NCCC[C@H](NC(=O)[C@H](CCCNC(=N)N)NC(=O)[C@@H](N)CCCNC(=N)N)C(=O)N[C@@H](CCCNC(=N)N)C(=O)N[C@@H](C(=O)N[C@@H](C(=O)N[C@@H](C(=O)O)C(c1ccccc1)c1ccccc1)C(c1ccccc1)c1ccccc1)C(c1ccccc1)c1ccccc1 [IFX-072-1] (H-RRRR[dDip][dDip][dDip]-OH),6.2,470,3.1,6.2,12.5,–
N=C(N)NCCC[C@@H](N)C(=O)N[C@H](CCCNC(=N)N)C(=O)N[C@H](CCCNC(=N)N)C(=O)N[C@H](CCCNC(=N)N)C(=O)N[C@H](C(=O)N[C@H](C(=O)N[C@H](C(=O)O)C(c1ccccc1)c1ccccc1)C(c1ccccc1)c1ccccc1)C(c1ccccc1)c1ccccc1 [IFX-073-1] (H-[dR][dR][dR][dR][Dip][Dip][Dip]-OH),6.2,410,3.1,6.2,12.5,–
"N=C(N)NCCC[C@@H]1NC(=O)[C@@H](CCCNC(=N)N)NC(=O)[C@H](CCCNC(=N)N)NC(=O)[C@@H](Cc2ccc3ccccc3c2)NC(=O)[C@@H](Cc2ccc3ccccc3c2)NC(=O)[C@@H](Cc2ccc3ccccc3c2)NC(=O)[C@@H](CCCNC(=N)N)NC1=O [IFX-084, c[Arg-arg-Arg-arg-naI-naI-naI]] (cyclo(R[dR]R[dR][d2Nal][d2Nal][d2Nal]))",–,400,3.1,1.5,12.5,–
"N=C(N)NCCC[C@@H]1NC(=O)[C@H](CCCNC(=N)N)NC(=O)[C@H](CCCNC(=N)N)NC(=O)[C@H](CCCNC(=N)N)NC(=O)[C@@H](Cc2ccc3ccccc3c2)NC(=O)[C@H](Cc2ccc3ccccc3c2)NC(=O)[C@H](Cc2c[nH]c3ccccc23)NC1=O [IFX-102, c[Arg-Arg-Arg-Arg-Trp-NaI-naI]] (cyclo([2Nal][d2Nal]RRRRW))",12.5,200,3.1,3.1,25,–
"N=C(N)NCCC[C@@H]1NC(=O)[C@H](CCCNC(=N)N)NC(=O)[C@H](CCCNC(=N)N)NC(=O)[C@H](Cc2ccc3ccccc3c2)NC(=O)[C@@H](Cc2ccc3ccccc3c2)NC(=O)[C@H](Cc2c[nH]c3ccccc23)NC(=O)[C@H](CCCNC(=N)N)NC1=O [IFX-103, c[Arg-Arg-Arg-Arg-Trp-naI-NaI]] (cyclo([2Nal]RRRRW[d2Nal]))",12.5,170,3.1,3.1,–,12.5
"N=C(N)NCCC[C@@H]1NC(=O)[C@H](CCCNC(=N)N)NC(=O)[C@H](Cc2ccc3ccccc3c2)NC(=O)[C@H](Cc2ccc3ccccc3c2)NC(=O)[C@@H](Cc2c[nH]c3ccccc23)NC(=O)[C@H](CCCNC(=N)N)NC(=O)[C@H](CCCNC(=N)N)NC1=O [IFX-104, c[Arg-Arg-Arg-Arg-trp-NaI-NaI]] (cyclo([2Nal][2Nal]RRRR[dW]))",12.5,155,3.1,3.1,–,12.5
"N=C(N)NCCC[C@@H]1NC(=O)[C@H](Cc2ccc3ccccc3c2)NC(=O)[C@H](Cc2ccc3ccccc3c2)NC(=O)[C@H](Cc2c[nH]c3ccccc23)NC(=O)[C@@H](CCCNC(=N)N)NC(=O)[C@H](CCCNC(=N)N)NC(=O)[C@H](CCCNC(=N)N)NC1=O [IFX-105, c[Arg-Arg-Arg-arg-Trp-NaI-NaI]] (cyclo([2Nal][2Nal]RRR[dR]W))",12.5,130,3.1,3.1,–,12.5
"N=C(N)NCCC[C@@H]1NC(=O)[C@H](CCCNC(=N)N)NC(=O)[C@@H](Cc2ccc3ccccc3c2)NC(=O)[C@@H](Cc2ccc3ccccc3c2)NC(=O)[C@@H](Cc2c[nH]c3ccccc23)NC(=O)[C@@H](CCCNC(=N)N)NC(=O)[C@@H](CCCNC(=N)N)NC1=O [IFX-118, c[Arg-Arg-arg-arg-trp-naI-naI]] (cyclo(RR[dR][dR][dW][d2Nal][d2Nal]))",16,210,–,3.1,16,–
"N=C(N)NCCC[C@@H]1NC(=O)[C@H](CCCNC(=N)N)NC(=O)[C@@H](CCCNC(=N)N)NC(=O)[C@@H](CCCNC(=N)N)NC(=O)[C@@H](Cc2ccc3ccccc3c2)NC(=O)[C@@H](Cc2ccc3ccccc3c2)NC(=O)[C@@H](Cc2c[nH]c3ccccc23)NC1=O [IFX-119, c[arg-arg-Arg-Arg-trp-naI-naI]] (cyclo([dR][dR]RR[dW][d2Nal][d2Nal]))",16,200,–,–,32,–
"N=C(N)NCCC[C@@H]1NC(=O)[C@H](Cc2ccc3ccccc3c2)NC(=O)[C@H](Cc2ccc3ccccc3c2)NC(=O)[C@@H](Cc2c[nH]c3ccccc23)NC(=O)[C@@H](CCCNC(=N)N)NC(=O)[C@@H](CCCNC(=N)N)NC(=O)[C@H](CCCNC(=N)N)NC1=O [IFX-120, c[Arg-Arg-arg-arg-trp-NaI-NaI]] (cyclo(RR[dR][dR][dW][2Nal][2Nal]))",32,195,–,–,32,–
"N=C(N)NCCC[C@@H]1NC(=O)[C@H](CCCNC(=N)N)NC(=O)[C@@H](CCCNC(=N)N)NC(=O)[C@@H](CCCNC(=N)N)NC(=O)[C@H](Cc2ccc3ccccc3c2)NC(=O)[C@H](Cc2ccc3ccccc3c2)NC(=O)[C@@H](Cc2c[nH]c3ccccc23)NC1=O [IFX-121, c[arg-arg-Arg-Arg-trp-NaI-NaI]] (cyclo([dR][dR]RR[dW][2Nal][2Nal]))",32,425,–,6.2,32,–
"N=C(N)NCCC[C@H]1NC(=O)[C@@H](CCCNC(=N)N)NC(=O)[C@@H](CCCNC(=N)N)NC(=O)[C@@H](Cc2ccc3ccccc3c2)NC(=O)[C@@H](Cc2c[nH]c3ccccc23)NC(=O)[C@@H](Cc2ccc3ccccc3c2)NC(=O)[C@@H](CCCNC(=N)N)NC1=O [IFX-142, c[arg-arg-arg-arg-naI-trp-naI]] (cyclo([dR][dR][dR][dR][d2Nal][dW][d2Nal]))",16,285,–,3.1,32,–
